The values below come from patent US20250243196A1, “CITRON KINASE INHIBITORS” (The Cleveland Clinic Foundation, priority 2021, published 2025).

Each structure is given as a SMILES string.

For this experiment, the target named is Citron kinase (Homo sapiens (Human), UniProt O14578). The experiment in a line: Radiometric citron kinase assay (Eurofins Cat #16-040KP). The conditions noted are these: mean of at least two independent assays; read-out: Radiometric CitK IC50. In kind it is biochemical. An excerpt: In some embodiments, the step of contacting the sample with the compound comprises administering the compound to a subject (e.g., a subject) suffering from cancer. Methods of determining kinase inhibition are well known in the art. For example, kinase activity of an enzyme and the inhibitory capacity of a test compound can be determined by measuring enzyme specific phosphorylation of a substrate. Commercial assays and kits can be employed. For example, kinase inhibition can be determined using a radiometric binding assay, such as using KinaseProfiler™ technology (Eurofins Discovery). This assay method directly detects product formation without the use of modified substrates or coupling enzymes. Test compounds are incubated with kinase, substrate, required cofactors and radioisotope labeled ATP. Following incubation, unreacted radioactive ATP is removed by washing and incorporation of the radiolabeled phosphate into the kinase substrate is assayed to detect phosphoryltransferase activity, which is directly proportional to the amount of phosphorylated substrate. Inhibition of the kinase by a kinase inhibitor prevents phosphorylation of the substrate and thereby limits the incorporation of radiolabeled phosphate. Such an assay is compatible with a microwell assay format, allowing simultaneous determination of IC50 of multiple compounds.
Compounds were screened for biochemical kinase activity (Eurofins Discovery, France) using one of two assays. […] All values in Table 1 are the mean of at least two independent assays.

Sequence of Citron kinase (O14578 whole entry): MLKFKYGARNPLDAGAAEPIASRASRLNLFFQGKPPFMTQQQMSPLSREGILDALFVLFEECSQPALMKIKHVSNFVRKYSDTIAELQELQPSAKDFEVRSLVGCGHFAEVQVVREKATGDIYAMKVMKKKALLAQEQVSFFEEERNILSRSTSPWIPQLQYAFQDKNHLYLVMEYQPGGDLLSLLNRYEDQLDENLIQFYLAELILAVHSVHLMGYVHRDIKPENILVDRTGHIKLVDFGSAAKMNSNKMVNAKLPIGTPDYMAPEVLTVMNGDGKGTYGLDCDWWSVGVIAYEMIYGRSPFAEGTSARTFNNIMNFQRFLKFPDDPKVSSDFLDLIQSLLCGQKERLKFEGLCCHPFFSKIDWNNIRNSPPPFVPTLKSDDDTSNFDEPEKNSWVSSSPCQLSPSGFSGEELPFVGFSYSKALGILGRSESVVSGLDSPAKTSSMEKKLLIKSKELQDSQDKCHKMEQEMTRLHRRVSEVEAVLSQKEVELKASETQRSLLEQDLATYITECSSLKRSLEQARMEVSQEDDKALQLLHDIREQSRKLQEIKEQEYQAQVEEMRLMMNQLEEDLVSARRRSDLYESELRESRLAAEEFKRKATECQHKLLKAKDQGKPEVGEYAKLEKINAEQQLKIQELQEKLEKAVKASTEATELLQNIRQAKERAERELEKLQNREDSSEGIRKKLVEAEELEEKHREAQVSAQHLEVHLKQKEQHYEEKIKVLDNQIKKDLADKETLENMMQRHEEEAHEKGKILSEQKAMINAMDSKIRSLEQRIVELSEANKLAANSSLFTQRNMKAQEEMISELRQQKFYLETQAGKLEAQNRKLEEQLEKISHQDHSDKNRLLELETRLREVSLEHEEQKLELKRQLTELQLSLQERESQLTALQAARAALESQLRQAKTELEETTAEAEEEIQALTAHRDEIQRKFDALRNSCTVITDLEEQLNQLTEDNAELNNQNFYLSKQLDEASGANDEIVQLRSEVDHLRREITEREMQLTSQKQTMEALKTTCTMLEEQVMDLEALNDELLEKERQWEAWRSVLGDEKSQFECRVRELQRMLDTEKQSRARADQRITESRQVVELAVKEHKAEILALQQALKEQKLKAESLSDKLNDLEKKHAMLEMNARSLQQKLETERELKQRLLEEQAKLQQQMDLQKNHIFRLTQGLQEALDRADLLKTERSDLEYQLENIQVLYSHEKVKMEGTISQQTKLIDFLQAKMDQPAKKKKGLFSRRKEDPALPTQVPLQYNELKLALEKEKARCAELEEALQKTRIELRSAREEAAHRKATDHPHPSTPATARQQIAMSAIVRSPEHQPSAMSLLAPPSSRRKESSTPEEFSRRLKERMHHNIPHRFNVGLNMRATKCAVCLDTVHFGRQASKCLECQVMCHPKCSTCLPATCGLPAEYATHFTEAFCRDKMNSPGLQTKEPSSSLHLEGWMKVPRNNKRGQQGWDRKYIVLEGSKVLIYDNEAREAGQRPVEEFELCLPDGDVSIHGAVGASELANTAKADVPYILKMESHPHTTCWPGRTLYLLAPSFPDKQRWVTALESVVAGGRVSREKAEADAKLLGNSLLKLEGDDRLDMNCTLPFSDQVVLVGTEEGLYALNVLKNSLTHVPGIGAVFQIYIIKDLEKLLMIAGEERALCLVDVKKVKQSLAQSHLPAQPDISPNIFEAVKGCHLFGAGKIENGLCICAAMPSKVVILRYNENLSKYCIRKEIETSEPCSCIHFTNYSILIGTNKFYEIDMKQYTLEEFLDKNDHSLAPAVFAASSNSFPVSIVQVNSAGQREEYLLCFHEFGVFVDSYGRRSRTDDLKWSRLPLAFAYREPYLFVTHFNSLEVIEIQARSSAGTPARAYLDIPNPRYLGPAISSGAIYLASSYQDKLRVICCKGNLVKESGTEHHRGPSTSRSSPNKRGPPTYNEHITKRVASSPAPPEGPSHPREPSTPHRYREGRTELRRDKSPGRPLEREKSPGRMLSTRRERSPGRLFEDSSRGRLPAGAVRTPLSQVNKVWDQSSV

The term IC50 denotes the midpoint of a concentration-inhibition curve. Turning to `Cc1cc(NC(=O)[C@H](N)C(C)(C)C)cc(C)c1-c1ccnc2[nH]ccc12` [Compound F-138, (2R)-2-Amino-N-[3,5-dimethyl-4-(1H-pyrrolo[2,3-b]pyridin-4-yl)phenyl]-3,3-dimethyl-butanamide], the IC50 was determined as 3000 nM.
Under `Cc1cc(NC(=O)[C@H](N)C(C)(C)O)ccc1-c1ccnc2[nH]c(C(F)F)cc12` [Compound F-139, (2R)-2-Amino-N-[4-[2-(difluoromethyl)-1H-pyrrolo[2,3-b]pyridin-4-yl]-3-methyl-phenyl]-3-hydroxy-3-methyl-butanamide] stands 151 nM; under `CC(C)(C)C[C@@H](N)C(=O)Nc1ccc(-c2ccnc3[nH]c(C4CC4)cc23)cc1` [Compound F-141, (2R)-2-Amino-N-[4-(2-cyclopropyl-1H-pyrrolo[2,3-b]pyridin-4-yl)phenyl]-4,4-dimethyl-pentanamide], 10 nM.
Under `Cc1cc(NC(=O)[C@H](N)CC(C)(C)C)ccc1-c1ccnc2[nH]c(C3CC3)cc12` [Compound F-142, (2R)-2-Amino-N-[4-(2-cyclopropyl-1H-pyrrolo[2,3-b]pyridin-4-yl)-3-methyl-phenyl]-4,4-dimethyl-pentanamide] stands 18 nM; under `CC(C)(C)C[C@@H](N)C(=O)Nc1ccc(-c2ccnc3[nH]c(C(F)F)cc23)cc1` [Compound F-143, (2R)-2-Amino-N-[4-[2-(difluoromethyl)-1H-pyrrolo[2,3-b]pyridin-4-yl]phenyl]-4,4-dimethyl-pentanamide], 4 nM.
Take `CC(C)(C)C[C@@H](N)C(=O)Nc1ccc(-c2ccnc3[nH]c(C(F)(F)F)cc23)cc1` [Compound F-144, (2R)-2-amino-4,4-dimethyl-N-[4-[2-(trifluoromethyl)-1H-pyrrolo[2,3-b]pyridin-4-yl]phenyl]pentanamide]: the IC50 turned out to be 22 nM.
Then `Cc1cc2c(-c3ccc(NC(=O)[C@H](N)CC(C)(C)C)cn3)ccnc2[nH]1` [Compound F-145, (2R)-2-Amino-4,4-dimethyl-N-(6-(2-methyl-1H-pyrrolo[2,3-b]pyridin-4-yl)pyridin-3-yl)pentanamide], with 26 nM.
Under `CC(C)(C)C[C@@H](N)C(=O)Nc1ccc(-c2ccnc3[nH]c(C(F)(F)F)cc23)cn1` [Compound F-146, (2R)-2-Amino-4,4-dimethyl-N-[5-[2-(trifluoromethyl)-1H-pyrrolo[2,3-b]pyridin-4-yl]-2-pyridyl]pentanamide] stands 307 nM.
Under `Cc1c(-c2ccnc3[nH]c(C(F)(F)F)cc23)ccc(NC(=O)[C@H](N)CC(C)(C)C)c1F` [Compound F-147, (2R)-2-Amino-N-[2-fluoro-3-methyl-4-[2-(trifluoromethyl)-1H-pyrrolo[2,3-b]pyridin-4-yl]phenyl]-4,4-dimethyl-pentanamide] stands 24 nM.
On to `COc1nc(-c2ccnc3[nH]c(C)cc23)ccc1NC(=O)[C@H](N)CC(C)(C)C` [Compound F-148, (2R)-2-Amino-N-[2-methoxy-6-(2-methyl-1H-pyrrolo[2,3-b]pyridin-4-yl)-3-pyridyl]-4,4-dimethyl-pentanamide], for which the IC50 was determined as 18 nM.
In the case of `COc1nc(-c2ccnc3[nH]c(C(F)(F)F)cc23)ccc1NC(=O)[C@H](N)CC(C)(C)C` [Compound F-149, (2R)-2-Amino-N-[2-methoxy-6-[2-(trifluoromethyl)-1H-pyrrolo[2,3-b]pyridin-4-yl]-3-pyridyl]-4,4-dimethyl-pentanamide], the IC50 turned out to be 38 nM.
Then `COc1nc(-c2ccnc3[nH]c(C(F)F)cc23)ccc1NC(=O)[C@H](N)CC(C)(C)C` [Compound F-150, (2R)-2-Amino-N-[6-[2-(difluoromethyl)-1H-pyrrolo[2,3-b]pyridin-4-yl]-2-methoxy-3-pyridyl]-4,4-dimethyl-pentanamide], with 9 nM; and `Cc1cc2c(-c3ccc(NC(=O)[C@H](N)CC(C)(C)C)nc3C)ccnc2[nH]1` [Compound F-151, (2R)-2-Amino-4,4-dimethyl-N-[6-methyl-5-(2-methyl-1H-pyrrolo[2,3-b]pyridin-4-yl)-2-pyridyl]pentanamide], with 91 nM.
Under `Cc1nc(NC(=O)[C@H](N)CC(C)(C)C)ccc1-c1ccnc2[nH]c(C(F)F)cc12` [Compound F-152, (2R)-2-Amino-N-[5-[2-(difluoromethyl)-1H-pyrrolo[2,3-b]pyridin-4-yl]-6-methyl-2-pyridyl]-4,4-dimethyl-pentanamide] stands 120 nM.
On to `COc1nc(NC(=O)[C@H](N)CC(C)(C)C)ccc1-c1ccnc2[nH]c(C)cc12` [Compound F-153, (2R)-2-Amino-N-[6-methoxy-5-(2-methyl-1H-pyrrolo[2,3-b]pyridin-4-yl)-2-pyridyl]-4,4-dimethyl-pentanamide], for which the IC50 came to 35 nM.
Under `COc1nc(NC(=O)[C@H](N)CC(C)(C)C)ccc1-c1ccnc2[nH]c(C(F)(F)F)cc12` [Compound F-154, (2R)-2-Amino-N-[6-methoxy-5-[2-(trifluoromethyl)-1H-pyrrolo[2,3-b]pyridin-4-yl]-2-pyridyl]-4,4-dimethyl-pentanamide] stands 59 nM; under `COc1nc(NC(=O)[C@H](N)CC(C)C)ccc1-c1ccnc2[nH]c(C(F)(F)F)cc12` [Compound F-155, (2R)-2-Amino-N-[6-methoxy-5-[2-(trifluoromethyl)-1H-pyrrolo[2,3-b]pyridin-4-yl]-2-pyridyl]-4-methyl-pentanamide], 113 nM.
Consider `Cc1cc2c(-c3ccc(NC(=O)[C@H](N)CC(C)(C)C)c(F)c3C)ccnc2[nH]1` [Compound F-156, (2R)-2-Amino-N-[2-fluoro-3-methyl-4-(2-methyl-1H-pyrrolo[2,3-b]pyridin-4-yl)phenyl]-4,4-dimethyl-pentanamide], for which the IC50 was found to be 10 nM.
Under `COc1cccc(C[C@@H](N)C(=O)Nc2ccc(-c3ccnc4[nH]c(C)cc34)c(C)c2)c1` [Compound F-157, (2R)-2-Amino-3-(3-methoxyphenyl)-N-[3-methyl-4-(2-methyl-1H-pyrrolo[2,3-b]pyridin-4-yl)phenyl]propenamide] stands 519 nM; under `Cc1cc2c(-c3ccc(NC(=O)[C@@H](N)CC(C)(C)C)cc3C)ccnc2[nH]1` [Compound F-158, (2S)-2-Amino-4,4-dimethyl-N-[3-methyl-4-(2-methyl-1H-pyrrolo[2,3-b]pyridin-4-yl)phenyl]pentanamide], 126 nM.
In the case of `Cc1cc2c(-c3ccc(NC(=O)[C@@H](N)C(C)(C)O)cc3C)ccnc2[nH]1` [Compound F-159, (2S)-2-Amino-3-hydroxy-3-methyl-N-[3-methyl-4-(2-methyl-1H-pyrrolo[2,3-b]pyridin-4-yl)phenyl]butanamide], the IC50 amounted to 852 nM.
As to `Cc1cc2c(-c3ccc(NC(=O)C(N)C(O)C(C)(C)C)cc3C)ccnc2[nH]1` (stereo not drawn) [Compound F-160, 2-Amino-3-hydroxy-4,4-dimethyl-N-[3-methyl-4-(2-methyl-1H-pyrrolo[2,3-b]pyridin-4-yl)phenyl]pentanamide], the IC50 was determined as 29 nM.
Then `COc1cc(NC(=O)[C@H](N)CC(C)(C)C)ccc1-c1ccnc2[nH]ccc12` [Compound F-166, (2R)-2-Amino-N-[3-methoxy-4-(1H-pyrrolo[2,3-b]pyridin-4-yl)phenyl]-4,4-dimethyl-Pentanamide], with 37 nM; and `COc1cc(NC(=O)[C@H](N)CC(C)(C)C)ccc1-c1ccnc2[nH]c(C)cc12` [Compound F-167, (2R)-2-Amino-N-[3-methoxy-4-(2-methyl-1H-pyrrolo[2,3-b]pyridin-4-yl)phenyl]-4,4-dimethyl-pentanamide], with 50 nM.
